Measurements published in the Bradley open melting point set (2014).
“And” between values parts separate entries of the source, which are not always exact repeats. Identical values can stand only once.

Row | melting point | SMILES
1 | -51 °C | O=C1CCCC1 [Cyclopentanone]
2 | 212 °C | Nc1ccn([C@@H]2O[C@H](CO)[C@@H](O)[C@@H]2O)c(=O)n1 [Cytarabine]
3 | 167 °C | OC[C@@H](O)[C@@H](O)[C@H](O)[C@H](O)CO [D-Mannitol]
4 | 82 °C | O=C[C@H](O)[C@H](O)[C@H](O)CO [D-Ribose]
5 | 104 °C | OC[C@@H](O)[C@H](O)[C@@H](O)CO [D-Xylitol]
6 | 108 °C | OC[C@H]1O[C@](O)(CO)[C@@H](O)[C@@H]1O [D-fructose]
7 | 145 °C | C[C@@H](O)[C@H](O)[C@H](O)[C@@H](O)C=O [D-fucose]
8 | 99 °C | OC[C@@H](O)[C@@H](O)[C@H](O)[C@@H](O)CO [D-sorbitol]
9 | 7 °C | CCCCCCCCCCO [Decan-1-ol]
10 | -30 °C and -29.7 °C | CCCCCCCCCC [Decane]
11 | 116 °C | O=C(O)c1ccc(-n2nc(-c3ccccc3O)nc2-c2ccccc2O)cc1 [Deferasirox]
12 | 130 °C | O=C(O)CCc1ccc(O)cc1 [Desaminotyrosine]
13 | 236 °C | NC(Cc1cc(I)c(Oc2cc(I)c(O)c(I)c2)c(I)c1)C(=O)O (configuration not stated) [Dextrothyroxine]
14 | 39 °C | CC(C)(C)[SiH](Cl)C(C)(C)C [Di-tert-butyl(chloro)silane]
15 | 157 °C | O=C(O)Cc1ccccc1Nc1c(Cl)cccc1Cl [Diclofenac]
16 | 162 °C | O=c1nc[nH]c2c1ncn2[C@H]1CC[C@@H](CO)O1 [Didanosine]
17 | -10 °C | CCOC(=O)/C=C\C(=O)OCC [Diethyl (2Z)-but-2-enedioate]
18 | 216 °C | O=C(O)c1cc(-c2ccc(F)cc2F)ccc1O [Diflunisal]
19 | 231 °C | COc1ccc([C@@H]2Sc3ccccc3N(CCN(C)C)C(=O)[C@@H]2OC(C)=O)cc1 [Diltiazem]
20 | -105 °C | COCOC [Dimethoxymethane]
21 | 104 °C | COC(=O)/C=C/C(=O)OC [Dimethyl (2E)-but-2-enedioate]
22 | 18.4 °C and 18.5 °C | CS(C)=O [Dimethyl sulfoxide]

Row | melting point | SMILES
23 | 53 °C | c1ccc(Nc2ccccc2)cc1 [Diphenylamine]
24 | -35 °C | C=CCCCCCCCCCC [Dodec-1-ene]
25 | 29 °C | CCCCCCCCCCCCN [Dodecan-1-amine]
26 | -9.6 °C | CCCCCCCCCCCC [Dodecane]
27 | 204 °C | COc1cccc2c1C(=O)c1c(O)c3c(c(O)c1C2=O)C[C@@](O)(C(=O)CO)C[C@@H]3O[C@H]1C[C@H](N)[C@H](O)[C@H](C)O1 [Doxorubicin]
28 | 191 °C | CC[C@H]1OC(=O)[C@H](C)[C@@H](O[C@H]2C[C@@](C)(OC)[C@@H](O)[C@H](C)O2)[C@H](C)[C@@H](O[C@@H]2O[C@H](C)C[C@H](N(C)C)[C@H]2O)[C@](C)(O)C[C@@H](C)C(=O)[C@H](C)[C@@H](O)[C@]1(C)O [Erythromycin]
29 | 176 °C | C[C@]12CC[C@@H]3c4ccc(O)cc4CC[C@H]3[C@@H]1CC[C@@H]2O [Estradiol]
30 | 282 °C | C[C@]12CC[C@@H]3c4ccc(O)cc4CC[C@H]3[C@@H]1C[C@@H](O)[C@@H]2O [Estriol]
31 | 163 °C | CCc1cc(C(N)=S)ccn1 [Ethionamide]
32 | -115 °C | C=COCC [Ethoxyethene]
33 | 49 °C | CCOC(=O)C(C#N)=Cc1ccccc1 [Ethyl 2-Cyano-3-Phenylacrylate]
34 | 54 °C | CCOC(=O)C(C#N)=C(SC)SC [Ethyl 2-cyano-3,3-bis(methylsulfanyl)acrylate]
35 | 116 °C | CCOC(=O)c1ccc(O)cc1 [Ethyl 4-hydroxybenzoate]
36 | 87 °C | CCOC(=O)c1cc(C)[nH]n1 [Ethyl 5-methyl-1H-pyrazole-3-carboxylate]
37 | 108 °C | CCOC(=O)Cn1cnc2ncnc(Cl)c21 [Ethyl (6-chloro-7H-purin-7-yl)acetate]
38 | -84 °C | CCOC(C)=O [Ethyl acetate]
39 | -34 °C | CCOC(=O)c1ccccc1 [Ethyl benzoate]
40 | -75 °C | C=C(C)C(=O)OCC [Ethyl methacrylate]
41 | 244 °C | COc1cc([C@@H]2c3cc4c(cc3[C@@H](O[C@@H]3O[C@@H]5CO[C@@H](C)O[C@H]5[C@H](O)[C@H]3O)[C@H]3COC(=O)[C@H]23)OCO4)cc(OC)c1O [Etoposide]
42 | 132 °C | CN(C)C(=O)Nc1ccccc1 [Fenuron]
43 | 315 °C | O=C1OC2(c3ccc(O)cc3Oc3cc(O)ccc32)c2ccccc21 [Fluorescein]
44 | 110 °C | CC(C(=O)O)c1ccc(-c2ccccc2)c(F)c1 (configuration not stated) [Flurbiprofen] [listing 1 of 2 here]

Row | melting point | SMILES
45 | 110 °C | CC(C(=O)O)c1ccc(-c2ccccc2)c(F)c1 (configuration not stated) [Flurbiprofen] [listing 2 of 2 here]
46 | 287 °C | O=C(O)/C=C/C(=O)O [Fumaric Acid]
47 | 206 °C | NS(=O)(=O)c1cc(C(=O)O)c(NCc2ccco2)cc1Cl [Furosemide]
48 | 170 °C | COc1ccc(Cl)cc1C(=O)NCCc1ccc(S(=O)(=O)NC(=O)NC2CCCCC2)cc1 [Glibenclamide]
49 | 80 °C | O=C(O)CO [Glycol acid]
50 | 258 °C | NCC(=O)NCC(=O)O [Glycylglycine]
51 | 239 °C | Nc1nc2c(ncn2[C@@H]2O[C@@H](CO)[C@H](O)[C@H]2O)c(=O)[nH]1 [Guanosine]
52 | 149 °C | COc1ccc(C(C)=CC(=O)O)c(OC)c1 [Hepadial]
53 | 57 °C | CCCCCCCCCCCCCCCCCO [Heptadecan-1-ol]
54 | -39 °C | CCCCC(=O)CC [Heptan-3-one]
55 | -43 °C | CCCCCCC=O [Heptanal]
56 | -140 °C | C=CCCCC [Hex-1-ene]
57 | 50 °C | CCCCCCCCCCCCCCCCO [Hexadecan-1-ol]
58 | 167 °C | Cc1c(C)c(C)c(C)c(C)c1C [Hexamethylbenzene]
59 | 218 °C | C[C@]12CCC(=O)C=C1CC[C@@H]1[C@@H]2[C@@H](O)C[C@@]2(C)[C@H]1CC[C@]2(O)C(=O)CO [Hydrocortisone] [listing 1 of 2 here]
60 | 220 °C | C[C@]12CCC(=O)C=C1CC[C@@H]1[C@@H]2[C@@H](O)C[C@@]2(C)[C@H]1CC[C@]2(O)C(=O)CO [Hydrocortisone] [listing 2 of 2 here]
61 | -40 °C | OO [Hydrogen peroxide]
62 | 76 °C | CC(C)Cc1ccc(C(C)C(=O)O)cc1 (configuration not stated) [Ibuprofen]
63 | 165 °C | O=c1[nH]c(=O)n([C@H]2C[C@H](O)[C@@H](CO)O2)cc1I [Idoxuridine]
64 | 159 °C | COc1ccc2c(c1)c(CC(=O)O)c(C)n2C(=O)c1ccc(Cl)cc1 [Indomethacin]
65 | 122 °C | IC(I)I [Iodoform]
66 | 180 °C | CCCCC1=NC2(CCCC2)C(=O)N1Cc1ccc(-c2ccccc2-c2nnn[nH]2)cc1 [Irbesartan]

Row | melting point | SMILES
67 | -160 °C | CC(C)C [Isobutane]
68 | -46 °C | CC(C)C(=O)O [Isobutyric Acid]
69 | 171 °C | NNC(=O)c1ccncc1 [Isoniazid]
70 | 171 °C | NNC(=O)c1ccncc1 [Isonicotinohydrazide]
71 | -160 °C | CCC(C)C [Isopentane]
72 | -89.5 °C | CC(C)O [Isopropyl Alcohol]
73 | 146 °C | CC(=O)N1CCN(c2ccc(OC[C@@H]3CO[C@@](Cn4ccnc4)(c4ccc(Cl)cc4Cl)O3)cc2)CC1 [Ketoconazole]
74 | 114 °C | CCCCCCCCCCCCCCCC(=O)OC[C@H](O)[C@H]1OC(=O)C(O)=C1O [L-ascorbic acid 6-palmitate]
75 | 110 °C | O=C[C@H](O)[C@H](O)[C@@H](O)CO [L-lyxose]
76 | 87 °C | OC[C@@H]1OC(O)[C@@H](O)[C@H]1O (stereo partly drawn) [L-ribose]
77 | 169 °C | O=C(O)[C@H](O)[C@@H](O)C(=O)O [L-tartaric acid]
78 | 315 °C | CC(C)[C@H](N)C(=O)O [L-valine]
79 | 196 °C | CC(CCc1ccccc1)NCC(O)c1ccc(O)c(C(N)=O)c1 (configuration not stated) [Labetalol]
80 | 264 °C | c1ccc([C@H]2CN3CCSC3=N2)cc1 [Levamisole]
81 | 236 °C | C#C[C@]1(O)CC[C@H]2[C@@H]3CCC4=CC(=O)CC[C@@H]4[C@H]3CC[C@@]21CC [Levonorgestrel]
82 | 236 °C | N[C@@H](Cc1cc(I)c(Oc2cc(I)c(O)c(I)c2)c(I)c1)C(=O)O [Levothyroxine]
83 | 174 °C | CC[C@H](C)C(=O)O[C@H]1C[C@@H](C)C=C2C=C[C@H](C)[C@H](CC[C@@H]3C[C@@H](O)CC(=O)O3)[C@H]21 [Lovastatin]
84 | 168 °C | OCC(O)C(O)C(O)C(O)CO (configuration not stated) [Mannitol]
85 | 72 °C | CCCCOC(=O)c1ccc(O)cc1 [Mekkings B]
86 | 254 °C | Cc1cnc(NC(=O)C2=C(O)c3ccccc3S(=O)(=O)N2C)s1 [Meloxicam]

Row | SMILES | melting point
87 | c1ccc2c(c1)oc1ccccc12 [Dibenzofuran] | 82 °C
88 | CCCCOC(=O)c1ccccc1C(=O)OCCCC [Dibutyl phthalate] | -35 °C
89 | C1=CC2C(C1)[C@@H]1C=C[C@H]2C1 (some centres not stated) [Dicyclopentadiene] | 32.5 °C
90 | CCOC(=O)c1ccccc1C(=O)OCC [Diethyl phthalate] | -3 °C
91 | COC(=O)c1ccccc1C(=O)OC [Dimethyl phthalate] | 2 °C
92 | O=c1[nH]c2ccccc2n1CCCN1CCC(n2c(=O)[nH]c3cc(Cl)ccc32)CC1 [Domperidone] | 242 °C
93 | O=C(Cl)C(=O)Cl [Ethanedioyl dichloride] | -9 °C
94 | Clc1c(Cl)c(Cl)c(Cl)c(Cl)c1Cl [Hexachlorobenzene] [listing 1 of 2 here] | 230 °C
95 | Clc1c(Cl)c(Cl)c(Cl)c(Cl)c1Cl [Hexachlorobenzene] [listing 2 of 2 here] | 228 °C
96 | FC(F)(F)C(F)(F)F [Hexafluoroethane] | -100 °C
97 | CCC1(CCC(C)C)C(=O)NC(=O)NC1=O [Inmetal] | 156 °C
98 | [O-][I+2]([O-])O [Iodic acid] | 110 °C
99 | O=C=N/C1CCCCC1 [Isocyanatocyclohexane] | -80 °C
100 | O=C1Nc2ccc(Cl)cc2C(c2ccccc2Cl)=NC1O (configuration not stated) [Lorazepam] | 167 °C
101 | NC(Cc1ccc(N(CCCl)CCCl)cc1)C(=O)O (configuration not stated) [Melphalan] | 182 °C
102 | CCCC(C)(COC(N)=O)COC(N)=O [Meprobamate] | 105 °C
